Test results from article PMC8748872, “Crystal structure and functional implication of bacterial STING” (Nature Communications, 2022).

Assays:
PcSTING = target: T1, PcSTING (Prevotella corporis, UniProt A0A133PTK7); test: crystal structure; LC-MS/MS of co-purified ligand; type: binding; conditions: co-purified endogenous ligand from E. coli; 2.25 A for the SeMet form
T1 construct: gene HMPREF3226_02659; C-terminal STING domain only; N-terminal His6-MBP or His6-SUMO tag removed by TEV; E. coli BL21(DE3); homodimer

[1] = target: full-length TIR-STING protein from Myroides sp. ZB35 (MyTIR-STING) (Myroides sp. ZB35); test: SEC; 16/60 Superdex 200 increase column; 20 mM Tris pH 8.0, 200 mM NaCl, 5% glycerol, 1 mM TCEP; no c-di-GMP added

T1 sequence (A0A133PTK7 entry or part of it): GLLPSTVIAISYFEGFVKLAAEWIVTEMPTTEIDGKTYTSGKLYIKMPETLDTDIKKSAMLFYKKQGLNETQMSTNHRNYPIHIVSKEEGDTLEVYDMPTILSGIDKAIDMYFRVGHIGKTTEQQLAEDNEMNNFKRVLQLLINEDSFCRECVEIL

stoichiometry N [1] | Molecule | crystal structure; LC-MS/MS of co-purified ligand (PcSTING)
 | Nc1nc2c(ncn2[C@@H]2O[C@@H]3COP(=O)(O)O[C@H]4[C@@H](O)[C@H](n5cnc6c(=O)[nH]c(N)nc65)O[C@@H]4COP(=O)(O)O[C@H]3[C@H]2O)c(=O)[nH]1 [c-di-GMP] | PcSTING/c-di-GMP and MySTING/c-di-GMP complexes have been deposited in the Protein Data Bank
2 | full-length TIR-STING protein from Myroides sp. ZB35 (MyTIR-STING) (natural protein) | 
